Reference: US6821769B2, “IniB, iniA and iniC genes of mycobacteria and methods of use” (priority 1998, dated 2004)

Tested on: iniA
Type: cell-based, BCG

NNC(=O)c1ccncc1 [isoniazid]
Induction of iniA in isoniazid resistant BCG strain: Lack of iniA induction
Induction of iniA in isoniazid susceptible BCG strain: seen only in the susceptible BCG strain
